Assay results reported in patent US10022345B2, “Agent for preventing and/or treating veisalgia” (SBI Pharmaceuticals Co., Ltd., priority 2011, dated 2018).
Several values for one entry are separate records, joined by “and”; a condition that tells them apart may be missing. Equal entries are not always repeated. Entries after “also recorded” stand apart in the source; their conditions may differ.

Key:
[1] = Example 8: case of hangover therapy, test subject A, capsule of aminolevulinic acid; assay type: in vivo, human; settings: terrible hangover, one capsule comprising 100 mg
Description: Test subject A who consumed Japanese sake similarly to Example 7 without ingesting any capsules developed a terrible hangover condition. Test subject A ingested one capsule comprising 100 mg of aminolevulinic acid. As a result, symptoms started to recover after 30 minutes had passed since administration, and they had completely recovered after 1.5 hours.

[2] = Example 9: questionnaire total score of ten hangover symptoms with and without ALAs ingestion, fifteen test subjects; assay type: in vivo, human; settings: for Total score After alcohol consumption (same day) / Total score Morning after alcohol consumption: ALAs ingested (10-150 mg total, differs per subject), sum of ten hangover symptom items each scored 0-4, one line per test subject 1-15
Description: The following tests were performed to more quantitatively measure that ALAs are effective for the prevention or therapy of a hangover.
In this experiment, aminolevulinic acid phosphate salt was employed as ALAs.
Each test subject, consumed alcohol in the evening for a total of two times in order to evaluate hangover symptoms in regards to each of (1) when ALAs was ingested and (2) when ALAs was not ingested. In the experiment with ALAs ingestion and the experiment without ALAs ingestion, the order for which of the experiments was performed first and the other of the experiments was performed, later was randomly selected for each test subject. Each experiment was performed with at least a few days apart.
Total amount of alcohol consumption varies by test subject. This is because a moderate amount for each test subject was consumed. Moreover, alcohol consumption was made so that the total amount of the second alcohol consumption was the same as the total amount of the first alcohol consumption (note that as exceptions, (1) the total amount of alcohol consumption when ALAs was ingested and (2) the total amount of alcohol consumption when ALAs was not ingested are not the same for test subjects 1, 2, and 12 in Table 5 below). In Table 5 below, the “total amount of alcohol consumption” indicates a value converted into the total amount of alcohol contained in beer or Japanese sake etc. consumed (in other words, in the case of a 500 ml canned beer, if the alcohol percentage is 5%, it is calculated as […]).
Moreover, for each test subject, the timing of ALAs ingestion (1) when ALAs was ingested was “at the start of alcohol consumption” and/or “after the end of alcohol consumption” as shown in Table 5 below. The ingestion of ALAs (aminolevulinic acid phosphate salt) was performed by selecting at least one from below:
(A) the capsule of Example 1 (contains 50 mg of ALAs),
(B) the capsule of Example 3 (contains 10 mg of ALAs),
(C) “Hanamitsu Drink™” (contains 5 or 10 mg of ALAs, a product generally marketed by the present applicants) for each test subject, ingested in the range of 10 mg-150 mg total.
(A) The body condition “after alcohol consumption on the day of alcohol consumption” (“after alcohol consumption (same day)” in Table 5) and (B) the body condition on “the morning after the day of alcohol consumption” (“morning after alcohol consumption” in Table 5) were quantified with the following scores. In other words, a five-step evaluation (0: no indication, 1: mild, 2: moderate, 3: severe, and 4: profound) was performed for each test subject in regards to the following ten items (a-j) which are hangover symptoms. Then, evaluation values (0-4) for each item were summed for each test subject. The results are described in Table 5 as the “total score” showing hangover symptoms.

[3] = phosphate salt, 10 mg ALAs with 60 mL alcohol
[4] = phosphate salt, 20 mg ALAs with 70 mL alcohol
[5] = phosphate salt, 50 mg ALAs with 14 mL alcohol
[6] = phosphate salt, 50 mg ALAs with 25 mL alcohol
[7] = phosphate salt, 50 mg ALAs with 45 mL alcohol
[8] = phosphate salt, 50 mg ALAs with 79 mL alcohol
[9] = phosphate salt, 50 mg ALAs with 108 mL alcohol
[10] = phosphate salt, 100 mg ALAs with 50 mL alcohol
[11] = phosphate salt, 100 mg ALAs with 75 mL alcohol
[12] = phosphate salt, 100 mg ALAs with 190 mL alcohol
[13] = phosphate salt, 150 mg ALAs with 129 mL alcohol

Q: With `NCC(=O)CCC(=O)O` [aminolevulinic acid, 5-aminolevulinic acid] as the compound, how does the “time after administration until hangover symptoms started to recover” value [1] read?
A: The value was 30 min.

Q: And the “time until complete recovery from hangover” value [1]?
A: Its value is 1.5 h.

Q: What does the source list for “aminolevulinic acid phosphate salt [ALAs]”?
A: Total score After alcohol consumption (same day) [2, 3]: 9; Total score Morning after alcohol consumption [2, 3]: 2; Total score After alcohol consumption (same day) [2, 4]: 1; Total score Morning after alcohol consumption [2, 4]: 1; Total score After alcohol consumption (same day) [2, 5]: 0; Total score Morning after alcohol consumption [2, 5]: 0; Total score After alcohol consumption (same day) [2, 6]: 0 (2×) and 3; Total score Morning after alcohol consumption [2, 6]: 0 (2×) and 3; Total score After alcohol consumption (same day) [2, 7]: 0; Total score Morning after alcohol consumption [2, 7]: 0; Total score After alcohol consumption (same day) [2, 8]: 0; Total score Morning after alcohol consumption [2, 8]: 0; Total score After alcohol consumption (same day) [2, 9]: 0; Total score Morning after alcohol consumption [2, 9]: 0; Total score After alcohol consumption (same day) [2, 10]: 1; Total score Morning after alcohol consumption [2, 10]: 1; Total score After alcohol consumption (same day) [2, 11]: 0; Total score Morning after alcohol consumption [2, 11]: 1 and 0 and 2; Total score After alcohol consumption (same day) [2, 12]: 9; Total score Morning after alcohol consumption [2, 12]: 7; Total score After alcohol consumption (same day) [2, 13]: 0; Total score Morning after alcohol consumption [2, 13]: 1; amount of alcohol consumption possible ([2]; ALAs ingested at the start of alcohol consumption, test subjects 1 and 2): Alcohol consumption at an amount more than usual was possible; hangover symptoms with ALAs ingestion compared to without, conclusions from Table 5 ([2]; subgroups of test subjects, phosphate salt): hangover symptoms were surprisingly mostly reduced; also recorded: Hangover symptoms were generally improved and a prophylactic effect of hangovers was seen; also recorded: no hangover symptoms manifested
